One test concerns the target T1, BMP-2 (Homo sapiens, UniProt P12643).
T1 construct: purchased R&D Systems Inc. (U.S.A.)
T1 sequence (P12643 283-396): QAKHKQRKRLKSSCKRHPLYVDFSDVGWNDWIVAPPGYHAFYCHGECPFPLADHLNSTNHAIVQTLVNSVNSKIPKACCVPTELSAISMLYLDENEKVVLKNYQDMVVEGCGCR
The test can be described thus: Surface plasmon resonance BMP-2 competitive binding assay. The note with it: 10 μg/mL pre-incubated with BMP-2 25 nM, applied to heparin-coated SPR chip. As for the experimental part:
Briefly, 20 mg heparin was biotinylated at free amine groups using 8.6 μM NHS-biotin in dimethyl sulfoxide, after which excess unreacted NHS-biotin was removed by passing the sample through two 7 kDa molecular weight cut-off Zeba spin desalting columns. […] Heparin oligosaccharides were used at a concentration of 10 μg/mL in HBS-EP 0.1% buffer (HBS-EP with 0.1% (v/v) Tween-20). […] The response was measured as a function of time at 25° C. R.U.s for the heparin surface were determined by subtracting the R.U. of the control (uncoated) flow channel from those of the heparin-biotin-coated flow channel. Representative sensorgrams from all competitive binding experiments may be found in supplementary information (FIG. 1). […] Data constitutes the mean±S.D. of three independent experiments.
For orientation: SPR reads the build-up and loss of mass on a sensor chip optically.

Another test deals with C2C12 cells. The test can be described thus: Alkaline phosphatase (ALP) activity assay in C2C12 cells. The format is cell-based, murine. The note with it: with BMP-2 100 ng/mL, 5 μg/mL, 3 days. How it is done: C2C12 cells were maintained as described above and seeded at 2×10^4 cells/cm2 in tissue culture treated 24-well plates. The cells were cultured in treatment media for 3 days, after which total protein was extracted and ALP activity was determined. Briefly, cells were washed with PBS and total protein extracted with RIPA buffer containing a protease inhibitor cocktail. Total protein concentration was determined using the BCA assay, then 7.5 μg of total protein per condition was combined with p-nitrophenylphosphate (Thermo-Fisher). […] Data represents mean±S.D. of three independent experiments.

As to dextran sulfate, the “percentage of BMP-2 sequestered in solution (reduction in response units vs. BMP-2 alone)” value on BMP-2 is “able to bind BMP-2 with high affinity”. The “BMP-2-induced ALP activity” value in the test on C2C12 cells is recorded as “inhibited BMP-2 bioactivity in vitro”.

The values above are taken from patent US11331337B2, “Heparin and heparan sulphate oligosaccharides” (Agency for Science, Technology and Research, priority 2017, dated 2022).
